Data: paper PMC8405463, “Development of a method for assessing the accumulation and metabolization of antidepressant drugs in zebrafish (Danio rerio) eleutheroembryos” (Analytical and Bioanalytical Chemistry, 2021)
Where a name gives a salt, the structure may show the parent alone. Read-outs that look alike come from different tables or passages of the source.

What was measured:
[1] = design: method as in earlier work; conditions: ref EPI suite (Experimental database or KOWWIN v1.67) and ChemAxon; cited from earlier work
[2] = test system: zebrafish (Danio rerio) eleutheroembryos; assay: SSRI metabolization in eleutheroembryos exposed to the mixture of parent compounds
Procedure: (§1) […] The concentration of the target analyte was determined in both eleutheroembryos and exposure medium all throughout the experiment.
(§2) Fish roe samples from lumpfish and zebrafish eleutheroembryos: 10 mg of wet weigh (w/w) fortified with a solution containing all tested pharmaceuticals at 240 ng·g^-1 and paroxetine d6 as IS at 100 ng·g^-1 was a mixture with 500 μL of acetonitrile and sonicated with ultrasonic probe at 40% of amplitude for 60 s to assist the extraction of the selected compounds and the mixture was centrifuged. The residue was discarded, and the supernatant was cleaned using 100 mg of C18, vortexed for 30 s, and centrifuged. Acetonitrile was led to evaporation before derivatization and injection to the GC-MS following the same steps as described above.

[3] = as above; conditions: zebrafish (Danio rerio), whole eleutheroembryos (larvae), other: waterborne exposure in exposure medium, pH 7.8, metabolite concentration in eleutheroembryos; for concentration at 6 h: t = 6h; for concentration at 24 h: t = 24h; for concentration at 45 h: t = 45h; for concentration at 48 h: t = 48h
Procedure: as §1, §2

[4] = ref SCIfinder; cited from earlier work
human liver microsomes = test system: human liver microsomes; design: method as in PMID 1389950; conditions: citalopram metabolized by cytochrome P450 isozyme to N-desmethylcitalopram; cited from earlier work
[5] = test system: zebrafish (Danio rerio) eleutheroembryos; assay: Bioconcentration experiment (OECD 305 based), 48 h exposure; type: in vivo; conditions: pH 7.8; for BCF48h: Cf(48h)/Cw(48h); for BCFk: k1/k2, first-order one-compartment model, 48 h
Procedure: Zebrafish eleutheroembryos were cultured from wild-type adult zebrafish bred and maintained in AZTI Zebrafish Facility (REGA ES489010006105) under standard conditions. The OECD 305 technical guidance was used as reference to establish the experimental conditions for growing as well as the nominal concentrations for the contaminants (dissolved oxygen ≥ 60 %, 27°C and pH 7.8 ± 0.2). Exposure solutions were prepared with the composition of fresh river water (ISO 73463 [43]): 220.5 mg of CaCl2, 63 mg of NaHCO3, 5.5 mg of KCl, and 60.1 mg of MgSO4 per liter of distilled water in plastic tanks.
[…]. […] […].
Bioconcentration factor (BCF) was estimated as the ratio between the concentration of the compound in the target organism, at the maximum time of exposure and the mean calculated in the exposure medium (BCF48h). […]
Where Cf is the concentration in fish (ng·g^-1), t is the exposure time (h), k1 is the first-order uptake constant (L·kg^-1·h^-1), Cw is the concentration of the chemical in the exposure media (μg·L^-1), and k2 is the first-order elimination rate constant (h^-1). Assuming a negligible concentration in fish samples at t0 and considering its constant in the exposure medium, the equations can be expressed as: 3 Cfuptake=k1/k2.Cw1−e^−k2t 4 Cfdepuration=Cf,0.e^−k2t
Where Cf,0 denotes the compound concentration in the organism, when the depuration phase starts. Experimental kinetics data were done using the software NONLIN 5.1, which is specific for no linear adjustments (Nashville, TN). BCFs were calculated applying the two procedures, getting BCF48h (Cf (48h) / Cw (48h)) and BCFk (k1/k2) for comparison purposes when steady state is reached.

zebrafish larvae = conditions: cited from earlier work; for calculated BCFs: individual compounds and mixtures at 5, 10 and 25 μg·L^-1
adult zebrafish = conditions: cited from earlier work
[6] = test system: Japanese medaka (Oryzias latipes); conditions: cited from earlier work; for average concentration in fish: Japanese medaka exposed to fluoxetine, day 7
[7] = test system: adult male fathead minnows (Phimephales promelas); conditions: plasma, 3, 11 and 28 ng·L^-1 in water; cited from earlier work
[8] = parent exposure concentration 80 μg·L^-1, t = 6h
[9] = parent exposure concentration 80 μg·L^-1, t = 24h
[10] = parent exposure concentration 80 μg·L^-1, t = 45h
[11] = parent exposure concentration 80 μg·L^-1, t = 48h
[12] = parent exposure concentration 300 μg·L^-1, t = 6h
[13] = parent exposure concentration 300 μg·L^-1, t = 24h
[14] = parent exposure concentration 300 μg·L^-1, t = 45h
[15] = parent exposure concentration 300 μg·L^-1, t = 48h
[16] = parent exposure concentration 80 μg·L^-1
[17] = parent exposure concentration 300 μg·L^-1

CN(C)CCCC1(c2ccc(F)cc2)OCc2cc(C#N)ccc21 (stereo not shown) [Citalopram, citalopram hydrobromide]
Log kow [1]: 3.74

CNCCCC1(c2ccc(F)cc2)OCc2cc(C#N)ccc21 (stereo not shown) [Desmethylcitalopram, desmethylcitalopram hydrochloride]
ratio metabolite / parent compound in the larvae [2, 8]: 0.07 | ratio metabolite / parent compound in the larvae [2, 9]: 0.06 | ratio metabolite / parent compound in the larvae [2, 10]: 0.15 | ratio metabolite / parent compound in the larvae [2, 11]: 0.54 | ratio metabolite / parent compound in the larvae [2, 12]: 0.47 | ratio metabolite / parent compound in the larvae [2, 13]: 0.78 | ratio metabolite / parent compound in the larvae [2, 14]: 0.15 | ratio metabolite / parent compound in the larvae [2, 15]: 0.26 | concentration at 6 h [3, 16]: 8.9 ng/g | concentration at 24 h [3, 16]: 10.1 ng/g | concentration at 45 h [3, 16]: 14.3 ng/g | concentration at 48 h [3, 16]: 32.3 ng/g | concentration at 6 h [3, 17]: 118 ng/g | concentration at 24 h [3, 17]: 297 ng/g | concentration at 45 h [3, 17]: 203 ng/g | concentration at 48 h [3, 17]: 123 ng/g | pKa [4]: 10.54 | ratio for the metabolite (human liver microsomes): 5–10 fold | BCF48h ([5]; nominal 80 μg·L^-1): 0.69 | BCF48h ([5]; nominal 300 μg·L^-1): 0.21 | BCFk ([5]; nominal 80 μg·L^-1): 0.7 | BCFk ([5]; nominal 300 μg·L^-1): 0.35 | Log kow [1]: 3.38

CNCCC(Oc1ccc(C(F)(F)F)cc1)c1ccccc1 (stereo not shown) [Fluoxetine, Fluoxetine hydrochloride]
bioaccumulation (zebrafish larvae; high concentration exposure 5000 μg·L^-1): 195 | calculated BCFs (zebrafish larvae): 94–170 | bioaccumulation (zebrafish larvae; low and moderate concentrations 10–50 μg·L^-1): around 30 | BCF (adult zebrafish; exposed to 0.9 and 3.20 μg·L^-1): 20 L/kg | average concentration in fish [6]: 40.8 ± 5.0 ng·g^-1 w.w. | kinetic BCF ([6]; Japanese medaka, nominal fluoxetine concentration 640 ng·L^-1): 80 | BCF ([6]; Japanese medaka, pH 7): 9 L/kg | BCF ([6]; Japanese medaka, pH 8): 30 L/kg | BCF ([6]; Japanese medaka, pH 9): 260 L/kg | Log kow [1]: 4.65

NCCC(Oc1ccc(C(F)(F)F)cc1)c1ccccc1 (stereo not shown) [Norfluoxetine, norfluoxetine hydrochloride]
pKa [4]: 9.05 | average concentration in fish [6]: 64.3 ± 8.7 ng·g^-1 w.w.

N[C@H]1CC[C@@H](c2ccc(Cl)c(Cl)c2)c2ccccc21 [Norsertraline, norsertraline hydrochloride]
metabolite concentration in eleutheroembryos [2, 8]: 44.4 ng/g | ratio metabolite / parent compound in the larvae [2, 8]: 0.17 | metabolite concentration in eleutheroembryos [2, 9]: 504.0 ng/g | ratio metabolite / parent compound in the larvae [2, 9]: 0.12 | metabolite concentration in eleutheroembryos [2, 10]: 751.8 ng/g | ratio metabolite / parent compound in the larvae [2, 10]: 0.33 | metabolite concentration in eleutheroembryos [2, 11]: 731.3 ng/g | ratio metabolite / parent compound in the larvae [2, 11]: 0.16 | metabolite concentration in eleutheroembryos [2, 12]: 141.4 ng/g | ratio metabolite / parent compound in the larvae [2, 12]: 0.17 | metabolite concentration in eleutheroembryos [2, 13]: 1228.7 ng/g | ratio metabolite / parent compound in the larvae [2, 13]: 0.18 | metabolite concentration in eleutheroembryos [2, 14]: 1968.2 ng/g | ratio metabolite / parent compound in the larvae [2, 14]: 0.41 | metabolite concentration in eleutheroembryos [2, 15]: 2594.7 ng/g | ratio metabolite / parent compound in the larvae [2, 15]: 0.47 | BCF48h ([5]; nominal 50 μg·L^-1): 26.5 | BCFk ([5]; nominal 50 μg·L^-1): 38 | Log kow [1]: 4.72

Fc1ccc([C@@H]2CCNC[C@H]2COc2ccc3c(c2)OCO3)cc1 [Paroxetine, paroxetine hemihydrate]
calculated BCFs (zebrafish larvae): 190–290 | pKa [4]: 9.90 | Log kow [1]: 3.95

CN[C@H]1CC[C@@H](c2ccc(Cl)c(Cl)c2)c2ccccc21 [Sertraline, sertraline hydrochloride]
BCF (adult zebrafish; exposed to 0.2 and 0.76 μg·L^-1): 50 to 70 L/kg | bioaccumulation values [7]: approximately 80 | Log kow [1]: 5.29
